This is an account of results in patent publication US8741932B2, “Imidazopyridine derivatives” (Piramal Enterprises Limited, priority 2009, dated 2014).

Holding throughout (assay type): cell-based
The subject of one series is IL-6. Kind of series: Human monocyte assay, LPS-stimulated IL-6. The following applies: human monocytes, 1 μg/ml LPS, 5 hours. As to the method: The assay was designed as in the reference, Physiol.
Peripheral blood mononuclear cells (hPBMC) were harvested from human blood and suspended in RPMI 1640 culture medium containing 10% FCS, 100 U/mL penicillin and […] streptomycin (assay medium). Monocytes in the hPBMCs were counted using a Coulter Counter following which the cells were resuspended at 2×10^5 monocytes/mL. A cell suspension containing 2×10^4 monocytes was aliquoted per well of a 96-well plate. Subsequently, the hPBMCs were incubated for 4-5 hours at 37° C., 5% CO2 (During the incubation, the monocytes adhered to the bottom of 96-well plastic culture plate). Following the incubation, the non-adherent lymphocytes were washed with assay medium and the adherent monocytes re-fed with assay medium. After a 48-hour incubation period (37° C., 5% CO2), monocytes were pretreated with various concentrations of representative compounds of present invention (refer to table 6 and 7) (prepared in DMSO) or vehicle (0.5% DMSO) for 30 minutes and stimulated with 1 μg/ml LPS (Escherchia coli 0111:B4, Sigma Chemical Co., St. Louis, Mo.). The incubation was continued for 5 hours at 37° C., 5% CO2. Supernatants were harvested, assayed for IL-6 and TNF-α by ELISA as described by the manufacturer (BD Biosciences, USA). Dexamethasone (10 μM) was used as standard for this assay. […] Biological results for both IL-6 and TNFα are indicated in Table 6 and Table 7 respectively.

Another series deals with A549. Description: Cytotoxicity assay (propidium iodide), A549. The following applies: A549 (C1a, lung); 48 hours.
A further series concerns H460. Description: Cytotoxicity assay (propidium iodide), H460. The settings on record: H460 (C1b, lung); 48 hours.

Some results are limits rather than exact numbers.

Protocol for H460: Cells from cell lines as mentioned in the table given below were seeded at a density of 3000 cells/well in a white opaque 96-well plate. Following incubation at 37° C./5% CO2 for a period of 18-24 hours, the cells were treated with various concentrations (stock solution was prepared in DMSO and subsequent dilutions were made in media as per ATCC guidelines) of the representative compounds of present invention (refer table 3) for a period of 48 hours. At the end of treatment, the spent culture medium was discarded, the cells were washed with 1×PBS and 200 μl of 7 μg/ml propidium iodide was added to each well. The plates were frozen at −70° C. for at least 24 hours. For analysis, the plates were brought to RT, allowed to thaw and were read in PolarStar fluorimeter with the fluorescence setting. The percentage of viable cells in the non treated set of wells was considered to be 100 and the percentage viability following treatment was calculated accordingly. IC50 values were calculated from graphs plotted using these percentages.

The term IC50 denotes the concentration needed to halve the response being measured. Read a high IC50 as weaker potency in that assay. `CN(/N=C/c1cnc2ccc(-c3cccnc3)cn12)S(=O)(=O)c1ccc(-c2ccccc2)cc1` [Example 72, (E)-N-methyl-N′-((6-(pyridin-3-yl)imidazo[1,2-a]pyridin-3-yl)methylene)biphenyl-4-sulfonohydrazide] showed an IC50 in the series with IL-6 (Monocyte) of at least 5 µM.

`COC(=O)c1ccc(S(=O)(=O)N(C)/N=C/c2cnc3ccc(-c4cccnc4)cn23)o1` [Example 73, (E)-Methyl 5-(1-methyl-2-((6-(pyridin-3-yl)imidazo[1,2-a]pyridin-3-yl)methylene) hydrazinylsulfonyl) furan-2-carboxylate] showed a concentration for half-maximal inhibition (IC50) with IL-6 of at least 5 µM.

In turn, `CN(/N=C/c1cnc2ccc(-c3cccnc3)cn12)S(=O)(=O)c1ccc(Cl)c([N+](=O)[O-])c1` [Example 74, (E)-4-chloro-N-methyl-3-nitro-N′-((6-(pyridin-3-yl)imidazo[1,2-a]pyridin-3-yl)methylene) benzenesulfonohydrazide] returned an IC50 with IL-6 (Monocyte) of 0.001 to 5 µM.

In the series with IL-6 (Monocyte), `Cc1ccc(F)cc1S(=O)(=O)N(C)/N=C/c1cnc2ccc(-c3cccnc3F)cn12` [Example 87, (E)-5-Fluoro-N′-((6-(2-fluoropyridin-3-yl)imidazo[1,2-a]pyridin-3-yl)methylene)-N,2-dimethylbenzenesulfonohydrazide] displayed a 50% inhibitory concentration (IC50) of 0.001 to 5 µM.

For `Cc1cc(-c2cccnc2)cn2c(/C=N/N(C)S(=O)(=O)c3cc(F)cc(F)c3)cnc12` [Example 101], the concentration for half-maximal inhibition (IC50) in the series with IL-6 was in the range of 0.001 to 5 µM.

Take `Cc1cc(-c2cccnc2)cn2c(/C=N/N(C)S(=O)(=O)c3ccccc3C#N)cnc12` [Example 104, (E)-2-cyano-N-methyl-N′-((8-methyl-6-(pyridin-3-yl)imidazo[1,2-a]pyridin-3-yl)methylene)benzenesulfonohydrazide]: the IC50 in the series with IL-6 (Monocyte) is at least 5 µM.

The molecule `Cc1cc(-c2cccnc2)cn2c(/C=N/N(C)S(=O)(=O)c3cccc(C#N)c3)cnc12` [Example 106, (E)-3-cyano-N-methyl-N′-((8-methyl-6-(pyridin-3-yl)imidazo[1,2-a]pyridin-3-yl)methylene)benzenesulfonohydrazide] yielded a concentration for half-maximal inhibition (IC50) in the series with IL-6 (Monocyte) of at least 5 µM.

For the molecule `Cc1cc(S(=O)(=O)N(C)/N=C/c2cnc3c(C)cc(-c4cccnc4)cn23)ccc1Br` [Example 107, (E)-4-Bromo-N,3-dimethyl-N′-((8-methyl-6-(pyridin-3-yl)imidazo[1,2-a]pyridin-3-yl)methylene)benzenesulfonohydrazide], the IC50 with IL-6 (Monocyte) was in the range of 0.001 to 5 µM.

Take `Cc1cc(-c2cccnc2)cn2c(/C=N/N(C)S(=O)(=O)c3cccc([N+](=O)[O-])c3)cnc12` [Example 109, (E)-N-methyl-N′-((8-methyl-6-(pyridin-3-yl)imidazo[1,2-a]pyridin-3-yl)methylene)-3-nitrobenzenesulfonohydrazide]: the half-maximal inhibitory concentration (IC50) in the series with IL-6 (Monocyte) was at least 5 µM.

In the series on IL-6 (Monocyte), `Cc1cc(-c2cccnc2)cn2c(/C=N/N(C)S(=O)(=O)c3cccc(Cl)c3)cnc12` [Example 110, (E)-3-Chloro-N-methyl-N′-((8-methyl-6-(pyridin-3-yl)imidazo[1,2-a]pyridin-3-yl)methylene)benzenesulfonohydrazide] came in with an IC50 of at least 5 µM.

Consider `Cc1cc(-c2cccnc2)cn2c(/C=N/N(C)S(=O)(=O)c3c(F)cc(F)cc3Br)cnc12` [Example 112], for which the IC50 in the series on IL-6 was at least 5 µM.

`Cc1cc(-c2cccnc2)cn2c(/C=N/N(C)S(=O)(=O)c3ccc(Cl)c([N+](=O)[O-])c3)cnc12` [Example 113, (E)-4-Chloro-N-methyl-N′-((8-methyl-6-(pyridin-3-yl)imidazo[1,2-a]pyridin-3-yl)methylene)-3-nitrobenzenesulfonohydrazide]: the half-inhibitory concentration (IC50) in the series with IL-6 (Monocyte) was 0.001 to 5 µM.

In the series on IL-6 (Monocyte), `Cc1cc(-c2cccnc2)cn2c(/C=N/N(C)S(=O)(=O)c3ccc(F)cc3Br)cnc12` [Example 114, (E)-2-Bromo-4-fluoro-N-methyl-N′-((8-methyl-6-(pyridin-3-yl)imidazo[1,2-a]pyridin-3-yl)methylene)benzenesulfonohydrazide] came in with a concentration for half-maximal inhibition (IC50) of at least 5 µM.

In the case of `Cc1cc2ncc(C=NN(C)S(=O)(=O)c3ccccc3C#N)n2cc1-c1cccnc1` [Example 117, 2-Cyano-N-methyl-N′-((7-methyl-6-(pyridin-3-yl)imidazo[1,2-a]pyridin-3-yl)methylene) benzenesulfonohydrazide], the IC50 in the series on IL-6 (Monocyte) was at least 5 µM.

Consider `Cc1cc2ncc(C=NN(C)S(=O)(=O)c3cc(F)ccc3C)n2cc1-c1cccnc1` [Example 118, 5-Fluoro-N, 2-dimethyl-N′-((7-methyl-6-(pyridin-3-yl)imidazo[1,2-a]pyridin-3-yl)methylene) benzenesulfonohydrazide], for which, in the series with IL-6 (Monocyte), the IC50 is at least 5 µM.

The molecule `Cc1cccc(S(=O)(=O)N(C)/N=C/c2cnc3ccc(-c4cccnc4)c(C)n23)c1` [Example 127, (E)-N,3-dimethyl-N′-((5-methyl-6-(pyridin-3-yl)imidazo[1,2-a]pyridin-3-yl)methylene)benzenesulfonohydrazide] returned an IC50 with IL-6 (Monocyte) of at least 5 µM.

Regarding `Cc1ccc(-c2ccc3ncc(/C=N/N(C)S(=O)(=O)c4cc(F)ccc4C)n3c2)cn1` [Example 128, (E)-5-fluoro-N,2-dimethyl-N′-((6-(6-methylpyridin-3-yl)imidazo[1,2-a]pyridin-3-yl)methylene)benzenesulfonohydrazide], the half-inhibitory concentration (IC50) in the series on IL-6 (Monocyte) fell in the range of 0.001 to 5 µM.

For the molecule `Cc1ccc(-c2ccc3ncc(/C=N/N(C)S(=O)(=O)c4ccccc4OC(F)(F)F)n3c2)cn1` [Example 129, (E)-N-methyl-N′-((6-(6-methylpyridin-3-yl)imidazo[1,2-a]pyridin-3-yl)methylene)-2-(trifluoromethoxy)benzenesulfonohydrazide], in the series on IL-6 (Monocyte), the concentration for half-maximal inhibition (IC50) is at least 5 µM.

`COc1ccc(F)cc1S(=O)(=O)N(C)/N=C/c1cnc2ccc(-c3ccc(C)nc3)cn12` [Example 130, (E)-5-Fluoro-2-methoxy-N-methyl-N′-((6-(6-methylpyridin-3-yl)imidazo[1,2-a]pyridin-3-yl)methylene)benzenesulfonohydrazide] had an IC50 in the series with IL-6 (Monocyte) of 0.001 to 5 µM.

On to `Cc1ccc(-c2ccc3ncc(/C=N/N(C)S(=O)(=O)c4ccccc4C)n3c2)cn1` [Example 131, (E)-N,2-dimethyl-N′-((6-(6-methylpyridin-3-yl)imidazo[1,2-a]pyridin-3-yl)methylene)benzenesulfonohydrazide], for which, in the series on IL-6 (Monocyte), the IC50 was at least 5 µM.

For the molecule `Cc1ccc(F)cc1S(=O)(=O)N(C)/N=C/c1cnc2ccc(-c3cnc(F)c(C)c3)cn12` [Example 134, (E)-5-Fluoro-N′-((6-(6-fluoro-5-methylpyridin-3-yl)imidazo[1,2-a]pyridin-3-yl)methylene)-N,2-dimethylbenzenesulfonohydrazide], the half-inhibitory concentration (IC50) in the series on IL-6 (Monocyte) lay in the range of 0.001 to 5 µM.

`Cc1ccc(F)cc1S(=O)(=O)N(C)/N=C/c1cnc2ccc(-c3ccc(Cl)nc3)cn12` [Example 135, (E)-N′-((6-(6-Chloropyridins-3-yl)imidazo[1,2-a]pyridin-3-yl)methylene)-5-fluoro-N,2-dimethylbenzenesulfonohydrazide] showed an IC50 in the series with IL-6 of 0.001 to 5 µM.

Molecule `COc1ccc(-c2ccc3ncc(/C=N/N(C)S(=O)(=O)c4cc(F)ccc4C)n3c2)cn1` [Example 137, (E)-5-fluoro-N′-((6-(6-methoxypyridin-3-yl)imidazo[1,2-a]pyridin-3-yl)methylene)-N,2-dimethylbenzenesulfonohydrazide] returned an IC50 with IL-6 (Monocyte) of at least 5 µM.

Molecule `COc1ncc(-c2ccc3ncc(/C=N/N(C)S(=O)(=O)c4cc(F)ccc4C)n3c2)cn1` [Example 138, (E)-5-Fluoro-N-((6-(2-methoxypyrimidin-5-yl)imidazo[1,2-a]pyridine-3-yl)methylene)-N, 2-dimethylbenzenesulfonohydrazide] had an IC50 with IL-6 of at least 5 µM.

`Cc1ccc(F)cc1S(=O)(=O)N(C)/N=C/c1cnc2ccc(-c3cncc(C(F)(F)F)c3)cn12` [Example 139, (E)-5-fluoro-N, 2-dimethyl-N′-((6-(5-(trifluoromethyl)pyridin-3-yl)imidazo[1,2-a]pyridin-3-yl)methylene) benzenesulfonohydrazide] yielded a half-inhibitory concentration (IC50) with IL-6 (Monocyte) of at least 5 µM.

In the case of `CN(/N=C/c1cnc2ccc(-c3cccnc3)cn12)C(=O)NCc1ccccc1` [Example 141, (E)-N-benzyl-1-methyl-2-((6-(pyridin-3-yl)imidazo[1,2-a]pyridin-3-yl)methylene)hydrazinecarboxamide], in the series on IL-6 (Monocyte), the half-inhibitory concentration (IC50) was 0.001 to 5 µM.

The molecule `CN(N=Cc1cnc2ccc(Br)cn12)C(=O)NCc1ccccc1` [Example 145, N-benzyl-2-((6-bromoimidazo[1,2-a]pyridin-3-yl)methylene)-1-methylhydrazinecarboxamide] returned a half-inhibitory concentration (IC50) with IL-6 (Monocyte) of 0.001 to 5 µM.

Take `CN(/N=C/c1cnc2ccc(-c3cccnc3)cn12)C(=S)NCCN1CCOCC1` [Example 148]: the half-inhibitory concentration (IC50) in the series on IL-6 is at least 5 µM.

With `CN(N=Cc1cnc2ccc(Br)cn12)C(=S)NCCN1CCOCC1` [Example 151, 2-((6-bromoimidazo[1,2-a]pyridin-3-yl)methylene)-1-methyl-N-(2-morpholinoethyl) hydrazinecarbothioamide], in the series on IL-6, the IC50 was 0.001 to 5 µM.

Consider “(E)-5-fluoro-N′-((6-(5-fluoropyridin-3-yl) imidazo[1,2-a]pyridin-3-yl)methylene)-N, 2-dimethylbenzenesulfonohydrazide [Example 132]”, for which the IC50 in the series with A549 and in the series with H460 was 0.01 to 5 µM each time.
